For assay [1], the system named is lymphocytic leukemia P388. As to the kind of experiment: Lymphocytic Leukemia P388 Test. Type of assay: in vivo, BDF1 mice. Conditions: for Median Survival: BDF1 mice; for T/C × 100 (%): ratio of survival time treated/control. In outline:
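BDF1 mice (5–6 per group) were inoculated i.p. with 10^6 P388 cells, then dosed i.p. on days 1, 5 and 9 at various doses. Survival was followed for 60 days, and median survival time and the treated/control (T/C) survival ratio were calculated.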

Assay [2] concerns melanotic melanoma B16 tumor. Nature of the assay: Melanotic Melanoma B16 test. Type of assay: in vivo, BDF1 mice. Conditions: for Median Survival: BDF1 mice; for T/C × 100 (%): ratio of survival time treated/control. On the procedure: The animals used were BDFl mice, all of the same sex, weighing a minimum of 17 g and all within a 3 g weight range. There were 12 animals per test group. A 1 g portion of melanotic melanoma B16 tumor was homogenized in 10 ml of cold balanced salt solution and a 0.5 ml aliquot of the homogenate was implanted intraperitoneally into each of the test mice. The test compounds were administered intraperitoneally on days 1, 5 and 9 (relative to tumor inoculation) at various doses. The animals were weighed and survivors recorded on a regular basis for 60 days. The median survival time and ratio of survival time for treated (T)/control (C) animals were calculated. The positive control compound was 1,4-bis[(2-aminoethyl)amino]-5,8-dihydroxyanthraquinone, dihydrochloride (U.S. patent application Ser. No. 87,354, filed Oct. 23, 1979).

Setting [3] is: dose 0.75 mg/kg intraperitoneally on days 1, 5 and 9.
Setting [4] is: dose 1.5 mg/kg intraperitoneally on days 1, 5 and 9.
The mark [5] stands for this setting: dose 3 mg/kg intraperitoneally on days 1, 5 and 9.

In the case of `Br.Br.Br.Br.NCCCC[C@H](N)C(=O)NCCNc1ccc(NCCNC(=O)[C@@H](N)CCCCN)c2c1C(=O)c1c(O)ccc(O)c1C2=O` (relative stereo) [Example 33, [S-(R*,R*)]-N,N'-[(9,10-Dihydro-5,8-dihydroxy-9,10-dioxo-1,4-anthracenediyl)bis(imino-2,1-ethanediyl)]bis[2,6-diaminohexanamide], tetrahydrobromide], the “Median Survival” value in assay [1] (setting [3]) is 23.0 days; in assay [1] (setting [4]), 33.0 days; in assay [1] (setting [5]), 13.0 days; in assay [2] (setting [3]), 26.5 days; in assay [2] (setting [4]) it was 37.5 days; in assay [2] (setting [5]), 25.5 days. Also, the “T/C × 100 (%)” value amounted to 230% in assay [1] (setting [3]); 330% in assay [1] (setting [4]); 130% in assay [1] (setting [5]); 156% in assay [2] (setting [3]); 221% in assay [2] (setting [4]); 162% in assay [2] (setting [5]).
For the compound `Cl.Cl.N[C@@H](CCC(=O)O)C(=O)NCCNc1ccc(NCCNC(=O)[C@@H](N)CCC(=O)O)c2c1C(=O)c1c(O)ccc(O)c1C2=O` (relative stereo) [Example 23, [S-(R*,R*)]-5,5'-[(9,10-Dihydro-5,8-dihydroxy-9,10-dioxo-1,4-anthracenediyl)bis(imino-2,1-ethanediylimino)]-bis[4-amino-5-oxo-pentanoic acid], dihydrochloride], the “Median Survival” value in assay [1] (setting [3]) came to 22.0 days; in assay [1] (setting [4]) it was 24.5 days; in assay [1] (setting [5]) it was 41.0 days; in assay [2] (setting [3]), 27.5 days; in assay [2] (setting [4]), 31.0 days; in assay [2] (setting [5]) it was 22.0 days. For the same compound, the “T/C × 100 (%)” value in assay [1] (setting [3]) was determined as 220%; in assay [1] (setting [4]), 245%; in assay [1] (setting [5]), 410%; in assay [2] (setting [3]) it was 162%; in assay [2] (setting [4]) it was 182%; in assay [2] (setting [5]), 129%.
For `C[C@@H](O)[C@H](N)C(=O)NCCNc1ccc(NCCNC(=O)[C@@H](N)[C@@H](C)O)c2c1C(=O)c1c(O)ccc(O)c1C2=O.O=C(O)C(F)(F)F.O=C(O)C(F)(F)F` (relative stereo) [Example 26, [2S-(2R*,2'R*,3S*,3'S*)]-N,N'-[(9,10-Dihydro-5,8-dihydroxy-9,10-dioxo-1,4-anthracenediyl)bis(imino-2,1-ethanediyl)]bis[2-amino-3-hydroxybutanamide]bis(trifluo roacetate)], the “Median Survival” value was found to be 21.0 days in assay [1] (setting [3]); 22.5 days in assay [1] (setting [4]); 33.5 days in assay [1] (setting [5]); 35.0 days in assay [2] (setting [3]); 39.5 days in assay [2] (setting [4]); 40.0 days in assay [2] (setting [5]). Besides, the “T/C × 100 (%)” value in assay [1] (setting [3]) is on record as 210%; in assay [1] (setting [4]), 225%; in assay [1] (setting [5]), 335%; in assay [2] (setting [3]), 206%; in assay [2] (setting [4]), 232%; in assay [2] (setting [5]) it was 235%.
Regarding `Cl.Cl.NCCNc1ccc(NCCN)c2c1C(=O)c1c(O)ccc(O)c1C2=O` [1,4-bis[(2-aminoethyl)amino]-5,8-dihydroxyanthraquinone, dihydrochloride, reference compound], in assay [2] (setting [4]), the “Median Survival” value was determined as 46.5 days and the “T/C × 100 (%)” value is listed as 274%.
For `Br.Br.C[C@H](NC(=O)OC(C)(C)C)C(=O)N[C@@H](C)C(=O)N[C@@H](CCCNC(=N)N)C(=O)NCCNc1ccc(NCCNC(=O)[C@H](CCCNC(=N)N)NC(=O)[C@H](C)NC(=O)[C@H](C)NC(=O)OC(C)(C)C)c2c1C(=O)c1c(O)ccc(O)c1C2=O` [Example 89, N,N'-[(9,10-Dihydro-5 8-dihydroxy-9,10-dioxo-1,4-anthracenediyl)bis(imino-2,1-ethanediyl)]bis[N-[(1,1-dimethylethoxy)carbonyl]-L-alanyl-L-alanyl-L-argininamide]-dihydrobromide], the “Median Survival” value in assay [1] (setting [3]) came to 17.0 days; in assay [1] (setting [4]), 17.5 days; in assay [1] (setting [5]) it was 24.5 days. In addition, the “T/C × 100 (%)” value was found to be 155% in assay [1] (setting [3]), 159% in assay [1] (setting [4]) and 223% in assay [1] (setting [5]).
`CC(C)(C)OC(=O)N[C@@H](CC(=O)OCc1ccccc1)C(=O)NCCNc1ccc(NCCNC(=O)[C@H](CC(=O)OCc2ccccc2)NC(=O)OC(C)(C)C)c2c1C(=O)c1c(O)ccc(O)c1C2=O` (relative stereo) [Example 45, [S-(R*,R*)]-4,4'-[(9,10-Dihydro-5,8-dihydroxy-9,10-dioxo-1,4-anthracenediyl)bis(imino-2,1-ethanediylimino)]bis[3-[[(1,1-dimethylethoxy)carbonyl]amino]-4-oxobutanoic acid]bis(phenylmethyl)ester]: the “Median Survival” value came out at 14.0 days in assay [1] (setting [3]), 15.5 days in assay [1] (setting [4]) and 18.0 days in assay [1] (setting [5]). In addition, the “T/C × 100 (%)” value in assay [1] (setting [3]) is given as 127%; in assay [1] (setting [4]) it was 141%; in assay [1] (setting [5]), 164%.
For `C[C@H](N)C(=O)NCCNc1ccc(NCCNC(=O)[C@H](C)N)c2c1C(=O)c1c(O)ccc(O)c1C2=O.Cl.Cl` (stereo in doubt) [Example 16, [S-(R*,R*)]-N,N'-[(9,10-Dihydro-5,8-dihydroxy-9,10-dioxo-1,4-anthracenediyl)bis(imino-2,1-ethanediyl)]bis-[2-aminopropanamide], dihydrochloride], the “Median Survival” value is 25.5 days in assay [1] (setting [3]), 52.5 days in assay [1] (setting [4]) and 42.5 days in assay [1] (setting [5]). Besides, the “T/C × 100 (%)” value is 232% in assay [1] (setting [3]), 477% in assay [1] (setting [4]) and 386% in assay [1] (setting [5]).
Turning to `Br.Br.Br.Br.C[C@H](N)C(=O)N[C@@H](CCCNC(=N)N)C(=O)NCCNc1ccc(NCCNC(=O)[C@H](CCCNC(=N)N)NC(=O)[C@H](C)N)c2c1C(=O)c1c(O)ccc(O)c1C2=O` [Example 88, N,N'-[(9,10-Dihydro-5,8-dihydroxy-9,10-dioxo-1,4-anthracenediyl)bis(imino-2,1-ethanediyl)]bis-[L-alanyl-L-argininamide]tetrahydrobromide], the “Median Survival” value turned out to be 22.5 days in assay [1] (setting [3]), 33.0 days in assay [1] (setting [4]) and 44.0 days in assay [1] (setting [5]). Moreover, the results for the “T/C × 100 (%)” value in assay [1] (setting [3]), in assay [1] (setting [4]) and in assay [1] (setting [5]) were 225%, 330% and 440%, respectively.
Consider `C[C@H](NC(=O)OCc1ccccc1)C(=O)NCC(=O)NCCNc1ccc(NCCNC(=O)CNC(=O)[C@H](C)NC(=O)OCc2ccccc2)c2c1C(=O)c1c(O)ccc(O)c1C2=O` [Example 55], for which the figures for the “Median Survival” value in assay [1] (setting [3]), in assay [1] (setting [4]) and in assay [1] (setting [5]) were 12.5 days, 13.0 days and 19.0 days, respectively. Also, the “T/C × 100 (%)” value worked out at 114% in assay [1] (setting [3]), 118% in assay [1] (setting [4]) and 173% in assay [1] (setting [5]).

(Values after US4732970A, “Antitumor amino acid and peptide derivatives of 1,4-bis(aminoalkyl and hydroxy-aminoalkyl)amino)-5,8-dihydroxyanthraquinones” (priority 1986, dated 1988).)
